Paper PMC10577883, “Design and Optimization of Novel Competitive, Non-peptidic, SARS-CoV-2 M^pro Inhibitors” (ACS Medicinal Chemistry Letters, 2023)
Values joined by “and” are separate entries in the source; they are usually repeats but may differ in a detail not shown here. Equal values may be shown once. Read-outs that look alike come from different tables or passages of the source.

Experiments:
[1] = biological target: SARS-CoV-2 Mpro (3CLpro) (Severe acute respiratory syndrome coronavirus 2, UniProt P0DTD1); assay: SARS-CoV-2 recombinant protease enzymatic assay (FRET); assay type: biochemical; details: for IC50: recombinant Mpro, FRET peptide substrate
[2] = test system: SARS-CoV-2-Nluc reporter virus; assay: microbe, parasite or virus in culture; assay type: cell-based; details: for EC50: Severe acute respiratory syndrome coronavirus 2, VeroE6/TMPRSS2 cells, parentheses denote 95% confidence intervals
[3] = in vitro; details: chlorocebus sabaeus
[4] = Rat liver microsome stability assay; details: 37 °C; for remaining at 5 min, 3 µM / remaining at 10 min, 3 µM / remaining at 0.25 h, 3 µM / half-life at 3 µM: Sprague-Dawley, rat, microsomes; for remaining at 5 min, 3 µM / remaining at 10 min, 3 µM / remaining at 0.25 h, 3 µM: RLM Rel % remaining; for half-life at 3 µM: RLM t1/2, 3 μM, unit inferred
Protocol: Metabolic Stability Assay
(§3) Liver Microsome Stability Assay Protocol
(§4) Human liver microsomes (HLMs, 20 mg/mL), CD-1 mouse liver microsomes (MLMs, 20 mg/mL), Sprague Dawley
(§5) rat liver microsomes (RLMs, 20 mg/mL) were purchased from Xenotech. NADPH was purchased from Sigma-
(§6) Aldrich and prepared in 10 mM stock solutions of distilled H2O (InvitrogenTM UltraPureTM). Verapamil and
(§7) diphenhydramine were both purchased from Sigma-Aldrich and served as positive controls for LM stability assays.
(§8) Test compounds and positive controls were initially dissolved in DMSO to make 10 mM stock solutions. Sample
(§9) solutions were then further diluted in 100% MeCN to 500 μM. Next, the reactions were prepared by mixing human
(§10) or mouse liver microsomes (55 μL) with potassium phosphate buffer (100 mM, 928 μL) in 1.5 mL Eppendorf tubes.
(§11) The test compounds (6.6 μL of 500 μM solution) were subsequently added to the suspensions, and the reaction
(§12) mixtures were incubated at 37 °C for 5 min. Afterward, the liver microsome reactions were initiated with 110 μL
(§13) of 10 mM NADPH and further incubated at 37 °C for the designated time course of the study. This procedure
(§14) provided experiments with a final volume of 1100 μL (0.6% organic solvent content) and a final test compound
(§15) concentration of 3 μM. Aliquots (100 μL) were removed from each reaction mixture in duplicate at 0, 5, 10, 15,
(§16) and 30 min time intervals and quenched with 100 μL of cold internal standard solution (ISTD, 2 μM
(§17) 7-ethoxy-d 5-coumarin in MeOH or MeCN). Quenched aliquots were then centrifuged at 12,500 g for 5-10 min, and
(§18) the resulting supernatants were withdrawn and placed in LC-MS vials to be analyzed by LC-MS/MS (Agilent
(§19) G6460C QQQ MS coupled with an Infinity II 1260 HPLC). Each test compound was run in tandem with positive and
(§20) negative control experiments for quality assurance. Positive control reactions were conducted at a final volume
(§21) of 550 μL for a single run of each time point. Lastly, the negative control experiment was conducted with test
(§22) compounds and liver microsomes in the absence of NADPH (150 μL) and analyzed at the 30 min time point.
(§23) Data Analysis. Each data point was analyzed in triplicate using in-between blank washes to avoid carry over and
(§24) to equilibrate the column for the subsequent runs. Averages of these triplicates for individual compounds at each
(§25) time point were then normalized to the data at 0 min, representing 100% test compound remaining or 0%
(§26) metabolism. Half-lives (t 1/2) were calculated by plotting ln of % test compound remaining versus time and
(§27) performing linear regression to determine slope.
(§28) Instrumentation and LC-MS/MS Method Development
(§29) LC-MS/MS analyses were conducted on an Agilent 1260 Infinity II HPLC equipped with an Agilent G6460 triple
(§30) quadrupole mass spectrometer (Agilent Technologies, USA). Reverse-phase HPLC separation for each compound
(§31) m) column maintained at 40 °C. The mobile phase used during analyses consisted of either MeOH-H2O (0.1% FA)
(§32) or MeCN-H2O (0.1% FA) at a flow rate of 0.5 mL/min. Each method was developed in the presence of the internal
(§33) standard (ISTD), 7-ethoxy-d 5-coumarin. Precursor and product ion detection was performed with Agilent Jet
(§34) Stream electrospray positive ionization (ESI+) in multiple reaction monitoring (MRM) mode. All MRM transitions,
(§35) MS conditions were as follows: dwell time of 100 ms; gas flow of 10 L/min; nebulizer pressure of 45 psi; delta EMV
(§36) of 200 V. Lastly, all acquired data was processed using Agilent 6460 Quantitative Analysis software.

[5] = Human liver microsome stability assay; details: for HLM percentage remaining after 30 min: 3 μM, 37 °C; for half-life at 3 µM / remaining at 5 min, 3 µM / remaining at 10 min, 3 µM / remaining at 0.25 h, 3 µM: human, microsomes
Protocol: Metabolic Stability Assay
as §3, §4, §5, §6, §7, §8, §9, §10, §11, §12, §13, §14, §15, §16, §17, §18, §19, §20, §21, §22, §23, §24, §25, §26, §27, §28, §29, §30, §31, §32, §33, §34, §35, §36

[6] = Mouse liver microsome stability assay; details: for MLM percentage remaining after 30 min: 3 μM, 37 °C; for half-life at 3 µM / remaining at 5 min, 3 µM / remaining at 10 min, 3 µM / remaining at 0.25 h, 3 µM: CD-1, mouse, microsomes
Protocol: Metabolic Stability Assay
as §3, §4, §5, §6, §7, §8, §9, §10, §11, §12, §13, §14, §15, §16, §17, §18, §19, §20, §21, §22, §23, §24, §25, §26, §27, §28, §29, §30, §31, §32, §33, §34, §35, §36

[7] = Pharmacokinetics after single IV and PO administration; assay type: in vivo, Male Sprague Dawley rats; details: male, Sprague-Dawley, rat, plasma
Protocol: (§1) To this end, 36 was studied in male Sprague–Dawley rats following a single intravenous dose at 0.25 mg/kg and an oral dose at 0.5 mg/kg (SI, Table S18).
Figure S16: Metabolite identification study of Compound 43 in liver microsomes using liquid chromatography coupled to high resolution mass spectrometry (LC-HRMS). The identification of metabolite Compound 43 M1 […]
(§2) MS analysis was performed using full scan from a mass range of 100-700 m/z at 60k resolution with data dependent MS/MS and MSn programs enabled for the top 5 ions detected for each scan. Compounds are detected based on their MS1 precursor ion accurate mass m/z and identified with matching theoretical and observed accurate mass MS1 ions with interpretation of accurate mass MS/MS spectra from expected […]
Table S18: Pharmacokinetic data of Compound 36 in Male Sprague Dawley rats following a single intravenous and oral administration (Dose: 0.25 mg/kg, IV and 0.5 mg/kg, PO)
Dose Tmax aC0/Cmax T1/2 CL Vss
Matrix Route AUClast AUCinf (mL/min %F […]
a – Back extrapolated concentration in IV group.
Figure S17: Plasma concentrations-time profiles (mean ± SD) of Compound 36 in Male Sprague Dawley rats following a single intravenous and oral administration (Dose: 0.25 mg/kg, IV and 0.5 mg/kg, PO) […]
(1 picture or pasted object on this page, not shown here)

[8] = Oral dose escalation pharmacokinetics (10 and 100 mg/kg PO); assay type: in vivo, rat; details: for AUC(0-inf) / Cmax / Tlast / Tmax / half-life / concentration at 24 h: rat plasma, mean ± SD, n = 3; for concentration at 24 h: read-out: Clast
Protocol: as §1
Table S19. Summary of Pharmacokinetic Parameters (nmol/mL) for Compound 36 in Rat Plasma after a Single Oral
Dose of 36 at 10 mg/kg or 100 mg/kg
Dose Tmax Cmax Tlast Clast AUCinf t1/2
(mg/kg) (h) (nmol/mL) (h) (nmol/mL) (h*nmol/mL) (h)
Results are shown as averages and standard deviations (n = 3).
Figure S18. Average Concentrations (nmol/mL) of Compound 36 in Rat Plasma after a Single Oral Dose of 36 at 10
Left panel: Linear Scale, Right panel: Log Scale. Results are shown as averages and standard deviations (n = 3). […]

[9] = Liver microsome metabolite identification (LC-HRMS); assay type: in vitro ADME; details: liver microsomes, LC-HRMS
Protocol: Figure S15: Stability of 45 in rat liver microsomes (RLM) at 37 °C
Table S17: Stability of 43 in rat liver microsomes (RLM) at 37 °C
Time Response ratio Average RR Rel % ln
Metabolite identification
Procedure for Liver Microsome Metabolite Identification Assay: Test compounds and positive controls were dissolved in 100% DMSO to make 10 mM stock solutions. The 10 mM stock solutions of test and control […]
(1 picture or pasted object on this page, not shown here) […]
compounds were further diluted in potassium phosphate buffer (100 mM, pH 7.4) to 500 μM to ensure that the organic solvent content was < 0.2%. The liver microsome (HLM or MLM) assay was prepared in a 1.5 mL Eppendorf tube with a final volume of […] for duplicate runs. Each reaction contained phosphate buffer (374 μL), liver microsomes (550 μL), and test compound (66 μL of 500 resulting in a final concentration of 30 μM), μM for the […]
test compound. […] Aliquots (100 μL) were removed in […]
as §2

[10] = test system: SARS-CoV-2 Mpro; details: literature value; cited from earlier work

In the case of `O=c1[nH]cccc1-c1cn(-c2cc(Cl)cc(OCc3nccn3C(F)F)c2)c(=O)n(-c2cccnc2)c1=O` [Compound 41], the IC50 [1] is reported as 0.013 µM, the EC50 [2] is reported as 6.76 µM and the CC50 [3] is reported as > 100 µM. For the same compound, the “RLM percentage remaining after 30 min” value ([4]; 3 μM) was 90.2% and 90.17%, the remaining at 5 min, 3 µM ([4]; 5 min) was 97.6% and the remaining at 10 min, 3 µM ([4]; 10 min) was 95.2%. The remaining at 0.25 h, 3 µM ([4]; 15 min) was 93.9%, the half-life at 3 µM [4] was > 30 min and the “HLM percentage remaining after 30 min” value [5] was 70.7%. The half-life at 3 µM [5] was > 30 min, the remaining at 5 min, 3 µM [5] was 94.5% and the remaining at 10 min, 3 µM [5] was 84.4%. The remaining at 0.25 h, 3 µM [5] was 66.4%, the “MLM percentage remaining after 30 min” value [6] was 22.8% and 22.79% and the half-life at 3 µM [6] was 14.7 min. It also gave a remaining at 5 min, 3 µM [6] of 63.8%, a remaining at 10 min, 3 µM [6] of 50.2% and a remaining at 0.25 h, 3 µM [6] of 37.7%.
In the case of `O=c1[nH]cccc1-c1cn(-c2cc(Cl)cc(OCCC(F)(F)F)c2)c(=O)n(-c2cccnc2)c1=O` [Compound 36], the IC50 [1] is reported as 0.055 µM, the EC50 [2] is reported as 1.35 µM and the bioavailability ([7]; PO 0.5 mg/kg vs IV 0.25 mg/kg, read-out: %F (oral bioavailability)) is reported as 40.6% and 41%. For the same compound, the AUC(0-inf) ([7]; IV 0.25 mg/kg) was 1680 ng·h/mL, the AUC(0-t) ([7]; IV 0.25 mg/kg) was 1610 ng·h/mL and the clearance ([7]; IV 0.25 mg/kg) was 2.49 mL/min/kg. The half-life ([7]; IV 0.25 mg/kg) was 103 min, the C0 ([7]; IV 0.25 mg/kg, read-out: C0 (back extrapolated concentration)) was 1330 ng/mL and the Vd ([7]; IV 0.25 mg/kg, read-out: Vss) was 0.33 L/kg. It also gave an AUC(0-inf) ([7]; PO 0.5 mg/kg) of 1690 ng·h/mL, an AUC(0-t) ([7]; PO 0.5 mg/kg) of 1310 ng·h/mL and a Cmax ([7]; PO 0.5 mg/kg) of 285 ng/mL. For the same compound, the Tmax ([7]; PO 0.5 mg/kg) was 100 min, the “increase in AUC on 10-fold increase in dose” value ([8]; 10 mg/kg vs 100 mg/kg PO) was 2 fold and the AUC(0-inf) ([8]; PO 10 mg/kg) was 23.2 ± 2.18 µM·h. The Cmax ([8]; PO 10 mg/kg) was 2610 ± 476 nM, the Tlast ([8]; PO 10 mg/kg) was 24.0 ± 0.00 h and the Tmax ([8]; PO 10 mg/kg) was 100 ± 34.6 min. The half-life ([8]; PO 10 mg/kg) was 161 ± 18.6 min, the concentration at 24 h ([8]; PO 10 mg/kg) was 12.6 ± 6.27 nM and the AUC(0-inf) ([8]; PO 100 mg/kg) was 49.9 ± 4.53 µM·h. It also gave a Cmax ([8]; PO 100 mg/kg) of 4130 ± 161 nM, a Tlast ([8]; PO 100 mg/kg) of 24.0 ± 0.00 h and a Tmax ([8]; PO 100 mg/kg) of 140 ± 91.8 min. For the same compound, the half-life ([8]; PO 100 mg/kg) was 224 ± 64.8 min, the concentration at 24 h ([8]; PO 100 mg/kg) was 114 ± 105 nM and the CC50 [3] was > 100 µM. The “RLM percentage remaining after 30 min” value ([4]; 3 μM) was 86.4% and 86.41%, the remaining at 5 min, 3 µM ([4]; 5 min) was 95.4% and the remaining at 10 min, 3 µM ([4]; 10 min) was 90.9%. For the same compound, the remaining at 0.25 h, 3 µM ([4]; 15 min) was 88.8%, the half-life at 3 µM [4] was > 30 min and the “HLM percentage remaining after 30 min” value [5] was 91.7% and 91.71%. For the same compound, the half-life at 3 µM [5] was > 30 min, the remaining at 5 min, 3 µM [5] was 98.2% and the remaining at 10 min, 3 µM [5] was 97.7%. For the same compound, the remaining at 0.25 h, 3 µM [5] was 98.2%, the “MLM percentage remaining after 30 min” value [6] was 73.3% and 73.26% and the half-life at 3 µM [6] was > 30 min. The remaining at 5 min, 3 µM [6] was 93.9%, the remaining at 10 min, 3 µM [6] was 90.1% and the remaining at 0.25 h, 3 µM [6] was 83.8%.
For `O=c1[nH]cccc1-c1cn(-c2cc(Cl)cc(OCc3ccccc3Cl)c2)c(=O)n(-c2cccnc2)c1=O` [Compound 43], the “IC50 range in words” value [1] was “single-digit nanomolar range”, the IC50 [1] was 0.0086 µM and the “EC50 range in words” value [2] was “sub-micromolar”. For the same compound, the EC50 [2] was 0.13 µM, the “major microsomal metabolite / metabolic route” value [9] was “ether cleavage” and the CC50 [3] was > 100 µM. The “RLM percentage remaining after 30 min” value ([4]; 3 μM) was 26.6% and 26.55% and 30.88%, the “RLM t1/2” value ([4]; 3 μM, unit not given) was 19.8 min and the “RLM Rel % remaining” value ([4]; 5 min) was 80.16%. The “RLM Rel % remaining” value ([4]; 10 min) was 63.43%, the “RLM Rel % remaining” value ([4]; 15 min) was 57.78% and the remaining at 5 min, 3 µM ([4]; 5 min) was 71.1%. The remaining at 10 min, 3 µM ([4]; 10 min) was 55.3%, the remaining at 0.25 h, 3 µM ([4]; 15 min) was 43.5% and the half-life at 3 µM [4] was 16.1 min. For the same compound, the “HLM percentage remaining after 30 min” value [5] was 48% and 47.72%, the half-life at 3 µM [5] was 27.8 min and the remaining at 5 min, 3 µM [5] was 91.6%. For the same compound, the remaining at 10 min, 3 µM [5] was 76.9%, the remaining at 0.25 h, 3 µM [5] was 70.7% and the “MLM percentage remaining after 30 min” value [6] was 4.0% and 3.96%. For the same compound, the half-life at 3 µM [6] was 3 min, the remaining at 5 min, 3 µM [6] was 22.8% and the remaining at 10 min, 3 µM [6] was 10.4%. It also gave a remaining at 0.25 h, 3 µM [6] of 7.53%.
For `N#Cc1ccccc1-c1cc(-c2ccccn2)cn(-c2ccccc2)c1=O` [Perampanel, perampanel], the IC50 [10] is listed as 100 to 200 µM.
